{"source": "patent US20020049313A1", "about": "“Method for introducing foreign material into higher eukaryotic cells” (priority 1994, published 2002)", "key": {"[1]": {"test_system": "primary human fibroblasts", "assay": "Luciferase gene expression after adenovirus-aided transferrinfection of primary human fibroblasts", "type": "cell-based", "conditions": "for improvement in gene expression: absence of E1B 19K, dexamethasone 10 μM, ibuprofen 100 μM, 5,8,11-eicosatriynoic acid 30 μM; for Induction (-fold) of luciferase expression: 3 μM dexamethasone, 24 hours after transfection", "method": "Samples of biotinylated, psoralen/UV-inactivated adenovirus dl1014 (8 μl, 1×10^12 particles/ml) were diluted in 150 μl of HBS and mixed with 1 μg of StpL in […] of HBS for 30 minutes at ambient temperature. Aliquots of 6 μg of plasmid DNA (in the case of mixtures of pCMVL-DNA and another plasmid the ratio was 5:1) were diluted in 100 μl of HBS and then mixed with the adenovirus/StpL solution for 30 minutes at ambient temperature. Finally, a 100 μl aliquot of HBS, containing 5 μg of TfpL, was added to each sample, followed by 30 minutes' incubation at ambient temperature.\nAfter surgical removal, skin biopsies were added to 4° C. DMEM containing 10% heat-inactivated FCS, 2 mM glutamine and gentamycin. The biopsies were carefully cut up in a tissue culture device using forceps and a surgical blade in a laminar air current in sterile 6 cm plastic dishes. Then 3 ml of DMEM, containing 20% FCS, 2 mM glutamine and antibiotics were added and the culture was placed in an incubator at 37° C. After 10 days the medium was replaced by DMEM containing 10% FCS. Then the medium was changed a further 2 times a week. 4 weeks after the start of cultivation the cells which had grown out of the tissue fragments were trypsinised and plated out into new culture dishes for transfection.\n(§1) The luciferase activity was determined as described in WO 93/07283.\nFirst of all, a series of experiments were carried out intended to establish whether the expression of certain adenovirus genes is capable of intensifying gene expression after transferrinfection. A defined quantity of the luciferase expression plasmid pCMVL (5 μg) was mixed with various plasmid DNA (1 μg in each), incorporated in TfpL/StpL/adenovirus transfection complexes (total volume 500 μl) and applied to primary human fibroblasts (50 μl of complex were applied to 2×10^4 cells per well in a 24-well plate, corresponding to 2.5×10^4 virus particles per cell, the measurements being carried out three times. In FIG. 4 “minus” denotes pSP65; the test DNA is specified in each case). The luciferase activity obtained was measured 48 to 72 hours after transfection. […] The E1 region contains two main gene functions, E1A and E1B. (The E1A products have the effect of separating E2F from the Rb protein and on the other hand they modulate the transcription activity of numerous cellular and adenovirus promoters. The main transcription-transactivator function is contained in the 13S gene product. The 1B gene codes for two main functions: the E1B 55K gene product binds p53 and changes its function. It is assumed that the 19K E1B gene product acts underneath p53 in order to block the apoptotic response).\nIn order to do this, transfection complexes containing pCMVL plus the plasmid pSP65, or the plasmids which contained the sequence for Bcl-2, E1A or E1B 19K (the quantities of reporter plasmid pCMVL and the relevant test plasmid were 5 μg and 1 μg, respectively, as in the previous Example), with virus particle numbers of 3×10^4 (FIG. 5A), 10^4 (FIG. 5B) or 3×10^3 (FIG. 5C) per cell were applied to primary fibroblasts and the luciferase activity was measured over a period of time. The transfections were carried out as described in the preceding Examples, the cells being given 6, 18 or 60 μl of transfection complex per well, containing 2×10^4 fibroblasts.\n(In these experiments, the cells in a well were given 18 μl of transfection complex.) From day 10 onwards, the culture medium was replaced with fresh medium daily; the idea of this procedure was to lower the concentrations of toxins by changing the medium."}, "[2]": {"test_system": "IL-6 promoter (NF-IL-6/NF-KB)", "assay": "IL-6 promoter luciferase reporter activation in A549 IL-6 cells", "type": "cell-based, human", "conditions": "A549/NF-IL-6 luciferase; 10 h; PMA 10^−8M, virus 10^4 Particle/cell", "text": "The construct described by Matsusaka et al., 1993 was used, which contains the luciferase sequence driven by the IL-6 promoter.\n(§2) In order to prepare the clonal cell lines, containing the reporter plasmid pNF-KB-Luc or pIL-6-Luc, the human lung cancer cell line A549 (ATCC CCL 185) was used as starting material. The plasmids were co-transfected with the neomycin-phosphotransferase-expression plasmid designated pmuatt (a pUC19 plasmid containing the TKneo-sequence; Grosveld et al., 1982) using the transfectam method (Behr et al., 1989) and selected for cells which are resistant to 400 μg/ml of G418 (Sigma). Clonal derivatives which expressed luciferase after induction by PMA were identified and expanded.\nas §1\n(§3) Stable clones of the lung epithelial carcinoma cell line A549 were produced, which contained pNF-KB-luc or pIL-6-luc as reporter gene construct. […]\nIn order to determine the time sequence of the NF-IL-6-and NF-KB-activation, the cells of the two cell lines which were found in the above quantities in a 24 well plate or 6 well plate were each treated with 10^4 adenovirus dl1014 virus particles per cell (which corresponded to 4×10^8 virus particles for each well of the A549 NF-KB cells or 4×10^9 virus particles for each well of the A549 IL-6 cells). […]"}, "NF-KB": {"test_system": "NF-KB", "assay": "NF-KB luciferase reporter activation in A549 NF-KB cells", "type": "cell-based, human", "conditions": "11 h, LPS 2.5 μg/ml, PMA 10^−8M", "text": "The plasmid pNF-KB-Luc responding to NF-KB was constructed as a derivative of the plasmid pTK3kbB described by Boehmelt et al., 1992. In order to do this, pTK3kbB was cut with XhoI and NcoI in order to remove the majority of the sequence coding for CAT, treated with Klenow enzyme and ligated with a Klenow-treated HindIII/SspI fragment of PRSVL, containing the luciferase sequence (De Wet et al., 1987). This yielded the plasmid p3K-Luc which contains a triple binding site for the transcription factor NF-KB plus the luciferase sequence, driven by a thymidine kinase (TK) TATA box.\nas §2, §1, §3"}}, "note": "“Also recorded” adds a separate entry of the source."}
{"smiles": "CCCCCCCCC#CCC#CCC#CCCCC(=O)O", "note": "[5,8,11-eicosatriynoic acid]", "values": [{"measurement": "improvement in gene expression", "setting": "[1]", "result": "only dexamethasone brings about a substantial improvement"}, {"measurement": "effect on gene expression", "setting": "[1]; presence of E1B 19K, dexamethasone 10 μM, 5,8,11-eicosatriynoic acid 30 μM", "result": "synergistic effect"}]}
{"smiles": "C[C@@H]1C[C@H]2[C@@H]3CCC4=CC(=O)C=C[C@]4(C)[C@@]3(F)[C@@H](O)C[C@]2(C)[C@@]1(O)C(=O)CO", "note": "[Dexamethasone, dexamethasone]", "values": [{"measurement": "Induction (-fold) of luciferase expression", "setting": "[1]; pCMVL/pCMV19K", "result": "2.71 -fold"}, {"measurement": "Induction (-fold) of luciferase expression", "setting": "[1]; pCMVL/pSP65 (absence of pCMV19K)", "result": "1.65 -fold"}]}
{"smiles": "CCCCCCCCCCCCCC(=O)O[C@@H]1[C@@H](C)[C@@]2(O)[C@@H](C=C(CO)C[C@]3(O)C(=O)C(C)=C[C@@H]23)[C@@H]2C(C)(C)[C@]12OC(C)=O", "note": "[PMA, Phorbolmyristylacetate]", "values": [{"measurement": "Increase (-fold)", "setting": "[2]", "result": "2.0 (10 h) -fold"}, {"measurement": "Increase (-fold)", "setting": "NF-KB", "result": "2.0 (11 h) -fold"}]}
{"smiles": "CC(=O)Oc1ccccc1C(=O)O", "note": "[aspirin, acetylsalicylic acid]", "values": [{"measurement": "effect on gene expression (luciferase) over time", "setting": "[1]; 10 μM dexamethasone or 2 mM Aspirin from 2 hours after transfection, with and without E1B 19K", "result": "increase in gene expression both in the presence and in the absence of E1B 19K; also recorded: less marked than that of dexamethasone"}, {"measurement": "interaction with the E1B 19K gene in increase of gene expression", "setting": "[1]; 10 μM dexamethasone or 2 mM Aspirin, pCMV19K co-transfected", "result": "synergistic effect"}]}
{"smiles": "CC(C)Cc1ccc(C(C)C(=O)O)cc1", "note": "(stereo not drawn) [ibuprofen, Ibuprofen]", "values": [{"measurement": "improvement in gene expression", "setting": "[1]", "result": "only dexamethasone brings about a substantial improvement"}]}
